PubChem BioAssay (NCI)
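Exposure lasted 48 hours, with cells grown in 96-well plates and compounds tested at five concentrations. TGI is the concentration that stops growth completely.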

What was measured:
Assay in all cases: NCI anticancer screen, dose series, 48 h
786-0 renal = test system: 786-0 renal
A498 renal = test system: A498 renal
A549 NSCLC = test system: A549 NSCLC
ACHN renal = test system: ACHN renal
BT-549 breast = test system: BT-549 breast
CAKI-1 renal = test system: CAKI-1 renal
CCRF-CEM leukemia = test system: CCRF-CEM leukemia
COLO 205 colon = test system: COLO 205 colon
DU-145 prostate = test system: DU-145 prostate
EKVX NSCLC = test system: EKVX NSCLC
HCC-2998 colon = test system: HCC-2998 colon
HCT-116 colon = test system: HCT-116 colon
HCT-15 colon = test system: HCT-15 colon
HL-60(TB) leukemia = test system: HL-60(TB) leukemia
HOP-62 NSCLC = test system: HOP-62 NSCLC
HOP-92 NSCLC = test system: HOP-92 NSCLC
HS 578T breast = test system: HS 578T breast
HT29 colon = test system: HT29 colon
KM12 colon = test system: KM12 colon
LOX IMVI melanoma = test system: LOX IMVI melanoma
M14 melanoma = test system: M14 melanoma
MALME-3M melanoma = test system: MALME-3M melanoma
MDA-MB-231 breast = test system: MDA-MB-231 breast
MDA-MB-435 = test system: MDA-MB-435
MDA-N = test system: MDA-N
NCI-H226 lung = test system: NCI-H226 lung
NCI-H23 lung = test system: NCI-H23 lung
NCI-H460 lung = test system: NCI-H460 lung
NCI-H522 lung = test system: NCI-H522 lung
NCI/ADR-RES ovarian = test system: NCI/ADR-RES ovarian
OVCAR-3 ovarian = test system: OVCAR-3 ovarian
OVCAR-4 ovarian = test system: OVCAR-4 ovarian
OVCAR-5 ovarian = test system: OVCAR-5 ovarian
PC-3 prostate = test system: PC-3 prostate
RXF 393 renal = test system: RXF 393 renal
SF-268 CNS = test system: SF-268 CNS
SF-295 CNS = test system: SF-295 CNS
SF-539 CNS = test system: SF-539 CNS
SK-MEL-2 melanoma = test system: SK-MEL-2 melanoma
SK-MEL-28 melanoma = test system: SK-MEL-28 melanoma
SK-MEL-5 melanoma = test system: SK-MEL-5 melanoma
SK-OV-3 ovarian = test system: SK-OV-3 ovarian
SN12C renal = test system: SN12C renal
SNB-19 CNS = test system: SNB-19 CNS
SNB-75 CNS = test system: SNB-75 CNS
SR leukemia = test system: SR leukemia
SW-620 colon = test system: SW-620 colon
T-47D breast = test system: T-47D breast
TK-10 renal = test system: TK-10 renal
U251 CNS = test system: U251 CNS
UACC-257 melanoma = test system: UACC-257 melanoma
UACC-62 melanoma = test system: UACC-62 melanoma
UO-31 renal = test system: UO-31 renal
IGROV1 ovarian = test system: IGROV1 ovarian
K-562 leukemia = test system: K-562 leukemia
MCF7 breast = test system: MCF7 breast
MOLT-4 leukemia = test system: MOLT-4 leukemia
OVCAR-8 ovarian = test system: OVCAR-8 ovarian
RPMI-8226 leukemia = test system: RPMI-8226 leukemia

In the case of `C[n+]1c2ccccc2n2c3ccccc3c(NCCCN3CCOCC3)c(C#N)c21`, the TGI (786-0 renal) is reported as 8.32 µM, the TGI (A498 renal) is reported as greater than 29 µM and the TGI (A549 NSCLC) is reported as 23.8 µM. For the same compound, the TGI (ACHN renal) was greater than 25.5 µM, the TGI (BT-549 breast) was greater than 100 µM and the TGI (CAKI-1 renal) was 8.38 µM. The TGI (CCRF-CEM leukemia) was greater than 100 µM, the TGI (COLO 205 colon) was 3.15 µM and the TGI (DU-145 prostate) was 18.2 µM. It also gave a TGI (EKVX NSCLC) of 15.1 µM, a TGI (HCC-2998 colon) of 3 µM and a TGI (HCT-116 colon) of 8.32 µM. It also gave a TGI (HCT-15 colon) of 19.4 µM, a TGI (HL-60(TB) leukemia) greater than 100 µM and a TGI (HOP-62 NSCLC) greater than 33.5 µM. The TGI (HOP-92 NSCLC) was greater than 100 µM, the TGI (HS 578T breast) was 6.47 µM and the TGI (HT29 colon) was greater than 100 µM. The TGI (KM12 colon) was 15.8 µM, the TGI (LOX IMVI melanoma) was 2.64 µM and the TGI (M14 melanoma) was 2.85 µM. For the same compound, the TGI (MALME-3M melanoma) was 3.96 µM, the TGI (MDA-MB-231 breast) was 4.94 µM and the TGI (MDA-MB-435) was 14.1 µM. The TGI (MDA-N) was 2.9 µM, the TGI (NCI-H226 lung) was 6.2 µM and the TGI (NCI-H23 lung) was 8.08 µM. It also gave a TGI (NCI-H460 lung) of 2.75 µM, a TGI (NCI-H522 lung) of 2.25 µM and a TGI (NCI/ADR-RES ovarian) greater than 76.8 µM. It also gave a TGI (OVCAR-3 ovarian) greater than 28.1 µM, a TGI (OVCAR-4 ovarian) of 8.81 µM and a TGI (OVCAR-5 ovarian) of 5.61 µM. The TGI (PC-3 prostate) was greater than 30 µM, the TGI (RXF 393 renal) was 3.91 µM and the TGI (SF-268 CNS) was 5.39 µM. The TGI (SF-295 CNS) was 14.8 µM, the TGI (SF-539 CNS) was 3.57 µM and the TGI (SK-MEL-2 melanoma) was 6.42 µM. The TGI (SK-MEL-28 melanoma) was greater than 20.4 µM, the TGI (SK-MEL-5 melanoma) was 9.87 µM and the TGI (SK-OV-3 ovarian) was 31.9 µM. The TGI (SN12C renal) was 6.44 µM, the TGI (SNB-19 CNS) was greater than 26.8 µM and the TGI (SNB-75 CNS) was 5.4 µM. For the same compound, the TGI (SR leukemia) was greater than 100 µM, the TGI (SW-620 colon) was 36.6 µM and the TGI (T-47D breast) was greater than 26.3 µM. It also gave a TGI (TK-10 renal) of 10.8 µM, a TGI (U251 CNS) greater than 28.4 µM and a TGI (UACC-257 melanoma) of 16.7 µM. For the same compound, the TGI (UACC-62 melanoma) was 13.8 µM and the TGI (UO-31 renal) was 15.3 µM.
In the case of `CCC1=C(C)C(=O)N/C1=C\c1[nH]c(C)c([C@H](C)CCN)c1C`, the TGI (786-0 renal) is reported as 28.9 µM, the TGI (A498 renal) is reported as 33.4 µM and the TGI (A549 NSCLC) is reported as 34.3 µM. The TGI (ACHN renal) was 32.9 µM, the TGI (BT-549 breast) was 29.9 µM and the TGI (CAKI-1 renal) was 32.3 µM. The TGI (CCRF-CEM leukemia) was greater than 100 µM, the TGI (COLO 205 colon) was 31.1 µM and the TGI (DU-145 prostate) was 32.5 µM. It also gave a TGI (EKVX NSCLC) of 28.1 µM, a TGI (HCT-116 colon) of 27.6 µM and a TGI (HCT-15 colon) of 28.6 µM. It also gave a TGI (HL-60(TB) leukemia) of 42.4 µM, a TGI (HOP-62 NSCLC) of 32.7 µM and a TGI (HOP-92 NSCLC) of 28.6 µM. It also gave a TGI (HS 578T breast) of 28.6 µM, a TGI (HT29 colon) of 29.6 µM and a TGI (IGROV1 ovarian) of 32 µM. It also gave a TGI (K-562 leukemia) greater than 100 µM, a TGI (KM12 colon) of 30.7 µM and a TGI (LOX IMVI melanoma) of 28.7 µM. It also gave a TGI (M14 melanoma) of 30.4 µM, a TGI (MALME-3M melanoma) of 32.8 µM and a TGI (MCF7 breast) of 32.9 µM. It also gave a TGI (MDA-MB-231 breast) of 32.7 µM, a TGI (MDA-MB-435) of 29.6 µM and a TGI (MDA-N) of 29.1 µM. For the same compound, the TGI (MOLT-4 leukemia) was greater than 100 µM, the TGI (NCI-H226 lung) was 31.8 µM and the TGI (NCI-H23 lung) was 26.8 µM. For the same compound, the TGI (NCI-H460 lung) was 35.5 µM, the TGI (NCI-H522 lung) was 24.4 µM and the TGI (NCI/ADR-RES ovarian) was 49 µM. It also gave a TGI (OVCAR-3 ovarian) of 30.1 µM, a TGI (OVCAR-4 ovarian) of 26.7 µM and a TGI (OVCAR-5 ovarian) of 31.7 µM. For the same compound, the TGI (OVCAR-8 ovarian) was 28.8 µM, the TGI (RPMI-8226 leukemia) was greater than 100 µM and the TGI (SF-268 CNS) was 30.4 µM. It also gave a TGI (SF-295 CNS) of 31.5 µM, a TGI (SF-539 CNS) of 15.5 µM and a TGI (SK-MEL-2 melanoma) of 35.1 µM. It also gave a TGI (SK-MEL-28 melanoma) of 32.5 µM, a TGI (SK-MEL-5 melanoma) of 31.4 µM and a TGI (SK-OV-3 ovarian) of 31.5 µM. For the same compound, the TGI (SN12C renal) was 29.8 µM, the TGI (SNB-75 CNS) was 22.6 µM and the TGI (SR leukemia) was greater than 100 µM. The TGI (SW-620 colon) was 35.1 µM, the TGI (T-47D breast) was 26.2 µM and the TGI (U251 CNS) was 28.9 µM. The TGI (UACC-62 melanoma) was 31.5 µM and the TGI (UO-31 renal) was 29.2 µM.
`COc1ccc(-c2cn3c(nc4ccccc43)c(/C=C/c3cccs3)n2)cc1` showed a TGI (786-0 renal) greater than 100 µM, a TGI (A498 renal) greater than 100 µM and a TGI (A549 NSCLC) greater than 100 µM. For the same compound, the TGI (ACHN renal) was greater than 100 µM, the TGI (BT-549 breast) was greater than 100 µM and the TGI (COLO 205 colon) was greater than 100 µM. For the same compound, the TGI (DU-145 prostate) was greater than 100 µM, the TGI (HCC-2998 colon) was greater than 100 µM and the TGI (HCT-116 colon) was greater than 100 µM. The TGI (HCT-15 colon) was greater than 100 µM, the TGI (HL-60(TB) leukemia) was 89.7 µM and the TGI (HOP-62 NSCLC) was greater than 100 µM. It also gave a TGI (HOP-92 NSCLC) greater than 100 µM, a TGI (HS 578T breast) greater than 100 µM and a TGI (HT29 colon) greater than 100 µM. The TGI (K-562 leukemia) was greater than 100 µM, the TGI (KM12 colon) was greater than 100 µM and the TGI (LOX IMVI melanoma) was greater than 100 µM. For the same compound, the TGI (M14 melanoma) was greater than 100 µM, the TGI (MALME-3M melanoma) was greater than 100 µM and the TGI (MCF7 breast) was greater than 100 µM. It also gave a TGI (MDA-MB-231 breast) greater than 100 µM, a TGI (MDA-MB-435) of 36.5 µM and a TGI (MDA-N) of 25.1 µM. It also gave a TGI (NCI-H226 lung) greater than 100 µM, a TGI (NCI-H23 lung) greater than 100 µM and a TGI (NCI-H460 lung) greater than 100 µM. The TGI (NCI/ADR-RES ovarian) was 51.7 µM, the TGI (OVCAR-3 ovarian) was greater than 100 µM and the TGI (OVCAR-4 ovarian) was greater than 100 µM. For the same compound, the TGI (OVCAR-5 ovarian) was greater than 100 µM, the TGI (RPMI-8226 leukemia) was 44.1 µM and the TGI (RXF 393 renal) was greater than 100 µM. For the same compound, the TGI (SF-268 CNS) was greater than 100 µM, the TGI (SF-539 CNS) was greater than 100 µM and the TGI (SK-MEL-2 melanoma) was 45.6 µM. The TGI (SK-MEL-28 melanoma) was greater than 100 µM, the TGI (SK-MEL-5 melanoma) was greater than 100 µM and the TGI (SK-OV-3 ovarian) was greater than 100 µM. For the same compound, the TGI (SN12C renal) was greater than 100 µM, the TGI (SNB-19 CNS) was greater than 100 µM and the TGI (SNB-75 CNS) was greater than 100 µM. It also gave a TGI (SR leukemia) of 15.4 µM, a TGI (SW-620 colon) greater than 100 µM and a TGI (T-47D breast) greater than 100 µM. It also gave a TGI (TK-10 renal) greater than 100 µM, a TGI (U251 CNS) greater than 100 µM and a TGI (UACC-257 melanoma) greater than 100 µM. The TGI (UACC-62 melanoma) was greater than 100 µM and the TGI (UO-31 renal) was greater than 100 µM.
